From patent US10709724B2, “Methods of treating mitochondrial dysfunction” (Ecole Polytechnique Federale de Lausanne (EPFL), priority 2011, dated 2020)

Test system: C57Bl/6J mice
Experiment: Long-term NR supplementation of chow or high-fat diet fed mice
Type: in vivo
Protocol: Animal Experiments. Male PARP-1^+/+ and PARP-1^−/− mice on a pure C57Bl/6J background (Menissier-de Murcia et al., 1997) were used. Mice were housed separately, had ad libitum access to water and standard rodent chow (10 kcal % of fat, Safe, Augy, France) or to a high calorie, high fat diet (60 kcal % of fat, Research. Diets, New Brunswick, N.J., USA), and were kept under a 12 h dark-light cycle. In other animal experiments, 8 weeks-old male C57Bl/6J mice were purchased from Charles River and powder chow (D12450B) and high fat (D12492) diets were from Research Diets Inc (New Brunswick, N.J., USA). 80 ml of water per kg of powder CD were used to make food pellets. 40 ml of water per kg of powder HFD were used to make food pellets. For NR, NMN and NA supplemented diets, the appropriate amount of these compounds was added to the water used to create the pellets, taking into account the differences in the daily intake of each diet. Mice were housed separately, had ad libitum access to water and food and were kept under a 12 h dark-light cycle. Mice were fed with homemade pellets from 10 weeks of age. To make the pellets, the powder food was mixed with water (vehicle) or with NR. All animal experiments were carried out according to local national and EU ethical guidelines. To monitor body weight, mice were weighed and the food consumption was measured each week on the same day. In case of PJ34 treatment, mice received each 12 h (at 7:00 and 19:00) 10 mg/kg PJ34 by intraperitoneal injection for 5 continuous days. In all studies animals were killed (at 14:00) either after CO2 inhalation or cervical dislocation after 6 h of fasting (starting at 8:00), and tissues were collected and processed as specified below. Oral glucose tolerance test, intraperitoneal insulin tolerance test, free fatty acid (FFA) and triglycerides were determined as described (Lagouge et al., 2006). Plasma insulin and was determined in heparinized plasma samples using specific ELISA kits (Mercodia). Blood samples were collected in heparinized tubes and plasma was isolated after centrifugation. Plasma parameters were measured using a Cobas c111 (Roche Diagnostics). Thermoadaptation was performed as described (Lagouge et al., 2006). We measured O2 consumption, CO2 production, and spontaneous locomotor activity in an open circuit indirect calorimetry system (Sabre systems, Las Vegas, Nev., USA) over 24-48 has described (Dali-Youcef et al., 2007; Lagouge et al., 2006; Watanabe et al., 2006). […] The respiratory quotient was the ratio of CO2 production over O2 consumption. During actimetry, beamline crossings were summarized each 15 minutes. […] Euglycemic-hyperinsulinemic clamps were performed in PARP-1^−/− and ^+/+ male mice (n=4 mice per genotype; age=4 months) exactly as previously described (Feige et al, 2008).
Instruments, total body fat was measured by echoMRI as described (Lagouge et al., 2006; Watanabe et al., 2006). Endurance test was performed as described in (Canto et al., 2009). Intraperitoneal glucose and insulin tolerance tests (IPGTT and IPITT, respectively) were performed as previously described (Feige et al, 2008). The animals were killed after 6 h of fasting by CO2 asphyxiation and tissues were collected. Total body fat content was then examined at autopsy, by weighing the subcutaneous, gonadal, mesenterial, retroperitoneal and BAT associated fat depots. Liver triglyceride was determined after Folch extraction using a commercial triglyceride kit (Roche). Pancreas and plasma insulin content was determined from acidic extracts using a commercial ELISA kit (Mercodia) (Champy et al., 2004).
Histology and Microscopy. Haematoxylin-eosin (HE), Oil Red-O and succinate-dehydrogenase (SDH) stainings were performed on […] tissue sections as described (Lagouge et al., 2006; Picard et al., 2002). Transmission electron microscopy (TEM) investigation was performed on glutaraldehyde-fixed, osmium tetroxyde stained ultrafine sections (Watanabe et al., 2006). […]

In the case of NC(=O)c1ccc[n+]([C@@H]2O[C@H](CO)[C@@H](O)[C@H]2O)c1 [NR, nicotinamide riboside], the fasting insulin levels (16 weeks, 6 hr fast) is reported as “much lower”, the “thermogenic capacity (body temperature during cold exposure)” value (CD and HFD) is reported as “enhanced thermogenic capacity” and the “O2 consumption rates on CD” value (CD, NR 400 mg/kg/day) is reported as “marked tendency to display higher O2 consumption rates”. For the same compound, the “RER changes between feeding and fasting periods” value (CD, NR 400 mg/kg/day) was “higher amplitude of the changes in RER”, the “body weight on chow diet” value (CD, NR 400 mg/kg/day) was “no effect” and the HDL-cholesterol levels (HFD) was “unaffected”. For the same compound, the “HFD-induced increase in LDL cholesterol” value (HFD) was “partially prevented the increase”, the “cristae of mitochondria in BAT (electron microscopy)” value (HFD) was “more abundant cristae” and the “size of mitochondria in BAT (electron microscopy)” value (HFD) was “not being significantly larger”. For the same compound, the “glucose tolerance (intraperitoneal glucose tolerance test)” value (HFD, 10 weeks) was “slight, albeit not significant, improvement in glucose tolerance”, the “insulin secretion during glucose tolerance test” value (HFD, 10 weeks) was “robust reduction in insulin secretion” and the “endurance performance on HFD (treadmill)” value (HFD, 12 weeks) was “significantly accentuated”. The “HFD-induced increase in total cholesterol” value (HFD, 16 weeks, 6 hr fast) was “partially prevented the increase”, the “O2 consumption rates on HFD” value (HFD, NR 400 mg/kg/day) was “clearly significant” and the “fat mass (Echo-MRI)” value (HFD, NR 400 mg/kg/day, 8 weeks) was “reduced fat mass”. For the same compound, the “HFD-induced body weight gain” value (HFD, NR 400 mg/kg/day, 12 weeks) was “significantly attenuated”, the activity pattern (NR 400 mg/kg/day) was “did not affect the activity pattern” and the “liver triglycerides, less than vehicle-fed” value (NR 400 mg/kg/day) was 40%. The “weight of the epididymal depot” value (NR 400 mg/kg/day) was “significant lower weight of the epididymal depot”, the food intake (NR 400 mg/kg/day, especially on HFD) was “tendency to eat more” and the endurance performance (NR-fed vs vehicle fed) was “clear tendency to display a better endurance performance”. For the same compound, the “SDH staining of gastrocnemius muscle” value (mouse, in vivo) was “more intense SDH staining”.
